Values quoted from earlier work as cited in patent US20250186473A1, “Compositions and Methods for Treating Kidney Disease” (Neukidney Incorporated, priority 2023, published 2025).

Tested on: CKD in rat models
Details: oral supplementation, BUN, serum creatinine, fibrosis

For `NC(=O)c1cccnc1` [Nicotinamide], the “effect on progression of CKD” value is given as “attenuated progression of CKD”.
